The record followed here is publication PMC10916551, “NNMT/1‐MNA Promote Cell‐Cycle Progression of Breast Cancer by Targeting UBC12/Cullin‐1‐Mediated Degradation of P27 Proteins” (Advanced Science, 2023).

This experiment has as its target T1, UBC12 (Homo sapiens, UniProt P61081).
T1 construct: gene UBE2M; amine-coupled to CM5 chip
T1 sequence (P61081 1-183): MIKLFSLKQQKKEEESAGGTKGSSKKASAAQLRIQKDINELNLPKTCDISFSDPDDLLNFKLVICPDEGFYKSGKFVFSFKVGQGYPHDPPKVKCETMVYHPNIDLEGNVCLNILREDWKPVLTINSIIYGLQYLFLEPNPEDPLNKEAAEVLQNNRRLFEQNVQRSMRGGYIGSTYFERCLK
Briefly: SPR (Biacore T200), UBC12 immobilised on CM5 chip. It is filed as binding. For orientation: Surface plasmon resonance follows binding to a sensor surface in real time, without labels.

What is called Kd is the concentration at which binding is half-saturated. In the case of `C[n+]1cccc(C(N)=O)c1` [1-MNA], binding was characterised by a dissociation constant (Kd) of 168 nM.
